From patent US20110160184A1, “Dibenzothiazepine Derivatives and Use Thereof” (ASTRAZENECA AB, priority 2008, published 2011) come the findings set out here.

Assay [1] concerns the target T1, dopamine D2s receptor (Homo sapiens, UniProt P14416).
T1 construct: expressed in transfected cells; membranes used
In words: D2 receptor in vitro functional GTPγS assay (block of dopamine-stimulated [35S]-GTPγS binding). Type of assay: biochemical. The protocol: (§1) In vitro experimental assays can generally be carried out as described herein. Briefly, CHO-K1 cells stably transfected with the dopamine D2s receptor can be used in the experiments and maintained in Ham's F12 culture medium supplemented with 2 mM L-glutamine, 10% FBS, and 500 μg/ml Hygromycin.
GTPgS assay can be performed substantially as described by Lazareno, Methods in Molecular Biology, 1999, 106, 231-245. Antagonist activity of compounds can be determined by the ability of test compounds to block dopamine-stimulated [^35S]-GTPγS binding to cell membranes from D2s stably-transfected CHO cells.
Background: GTPγS resists hydrolysis and so accumulates on activated G proteins.

For assay [2], the target named is T1, dopamine D2s receptor. Kind of assay: D2 receptor binding assay (3H-raclopride displacement, membranes from D2s-transfected CHO cells). The procedure:
as §1
The ability of test compounds to displace ^3H-raclopride at the D2s receptor can be determined on membranes from D2s-transfected CHO cells (Bmax 13 pmol/mg protein). An assay can use a standard 96-well glass-fiber filter plate to retain radioligand bound by the receptor. Retained ^3H can be determined in a TopCount scintillation plate counter following the addition of a liquid scintillant to each well. Compounds can be evaluated for their potency using competition curve analysis, resulting in calculated Ki values.

Assay [3] has as its target T2, human norepinephrine transporter (Homo sapiens, UniProt P23975).
T2 construct: expressed in transfected cells
In words: Norepinephrine uptake (fluorescent substrate, HEK293F cells). In kind it is cell-based. The protocol:
An assay for measuring norepinephrine uptake can be carried out as described below. Briefly, test compounds can be evaluated in an 11-point IC50 curve for their ability to inhibit uptake of a proprietary fluorescent substrate (dye) from Molecular Devices that mimics biogenic amine neurotransmitters. A stable population of HEK293F cells transfected with the human norepinephrine transporter (cultured in Freestyle 293 expression medium with […] hygromycin B) can be cryopreserved, then plated and used on the day of the assay. Cells can be at 60 K/well; dye can be 7% (final) of the vendor-recommended reconstitution volume (100%). Compounds can be diluted 1:20 in buffer and incubated with the cells for 30 minutes prior to addition of the dye. In this fluorescence intensity assay, plates can be read after a 20 minute dye incubation to determine percent effect with respect to total signal (0.5% DMSO, final) and background signal (10 μM desipramine, final). The IC50, half of the control response, can be converted to Ki using the using the standard Cheng-Prusoff equation.

A further assay has as its target H1 receptor (Homo sapiens, UniProt P35367). In words: H1 receptor binding. To be noted: read-out: H1 Hu Bind Mean Ki. From the text:
H1 Receptor Binding The H1 receptor binding method can be carried out in accordance with De Backer et al., Biochem. Biophys. Res. Commun, 1993, 197(3), 1601.

Assay [4] concerns D-Amphetamine-induced Hyperlocomotor Activity. In words: D-Amphetamine-induced hyperlocomotor activity (LMA) in habituated rat model. Type of assay: in vivo, male Long Evans rats. To be noted: D-amphetamine 1 mg/kg s.c. The protocol:
Studies in vivo can be used to determine the antipsychotic effect and are generally carried out as follows. Briefly, D-Amphetamine-induced Hyperlocomotor Activity (LMA) in a Habituated Rat Model can be assessed in male Long Evans rats using a paradigm that includes a habituation phase followed by administration of 1 mg/kg D-amphetamine. Animals can be allowed to acclimatize to the testing room for 1 hour before being weighed and placed into activity chambers. Thirty minutes after LMA measurement is begun, animals can be briefly removed, dosed via the sub-cutaneous route (s.c.) with vehicle or test drug at different doses and returned to the chambers. After a further 30 minutes, animals can again be removed and dosed with vehicle or D-amphetamine at 1 mg/kg (s.c.). After returning the animals to the activity chambers, LMA can be assessed for a further 60 minutes. Haloperidol (0.1 mg/kg dissolved in H2O) can be administered 15 minutes prior to D-amphetamine via the s.c. route. Statistical analysis can be made of total distance traveled after D-amphetamine administration using ANOVA and Tukey's post hoc analysis where appropriate. All values can be expressed as Mean and SD.

Assay [5] has as its system Conditioned Avoidance Responding. In words: Conditioned avoidance responding (CAR) assay. To be noted: rat. In kind it is in vivo, Male Long-Evans rats. The protocol: Male Long-Evans rats can be trained to traverse to the opposite side of a standard shuttle cage following presentation of an auditory and visual stimulus to avoid delivery of electric shock to the floor of the cage. Daily sessions can consist of up to 80 trials. If a shock is delivered, animals have the opportunity to escape the shock by traversing to the opposite side of the cage. Drug can be administered (via s.c. or p.o. route) 60 minutes prior to testing and the percentage of trials in which shock is avoided and escaped can be recorded.

Where [6] appears, read: antagonist mode, read-out: D2 Ant GTPγS IC50.
The mark [7] stands for this setting: w/NaCl, read-out: D2 binding w/NaCl Ki.
[8] abbreviates: HEK cells, fluorescence intensity, read-out: hNET uptake HEK FLInt CR Mean Ki.

Each structure is given as a SMILES string. Like-named read-outs stand apart in the source and are kept apart here.

T1 sequence (P14416 1-414 isoform P14416-2): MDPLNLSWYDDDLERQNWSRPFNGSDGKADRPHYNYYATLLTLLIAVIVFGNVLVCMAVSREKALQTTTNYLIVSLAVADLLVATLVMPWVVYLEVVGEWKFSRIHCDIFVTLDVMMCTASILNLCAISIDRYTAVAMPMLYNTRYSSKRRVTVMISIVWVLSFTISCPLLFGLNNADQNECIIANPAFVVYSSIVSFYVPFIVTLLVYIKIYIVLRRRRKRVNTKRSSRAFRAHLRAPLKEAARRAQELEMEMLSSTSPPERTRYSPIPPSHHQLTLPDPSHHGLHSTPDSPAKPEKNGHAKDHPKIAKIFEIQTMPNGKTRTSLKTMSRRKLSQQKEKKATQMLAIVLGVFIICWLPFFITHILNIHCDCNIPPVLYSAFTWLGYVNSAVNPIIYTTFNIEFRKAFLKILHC
T2 sequence (P23975 whole entry): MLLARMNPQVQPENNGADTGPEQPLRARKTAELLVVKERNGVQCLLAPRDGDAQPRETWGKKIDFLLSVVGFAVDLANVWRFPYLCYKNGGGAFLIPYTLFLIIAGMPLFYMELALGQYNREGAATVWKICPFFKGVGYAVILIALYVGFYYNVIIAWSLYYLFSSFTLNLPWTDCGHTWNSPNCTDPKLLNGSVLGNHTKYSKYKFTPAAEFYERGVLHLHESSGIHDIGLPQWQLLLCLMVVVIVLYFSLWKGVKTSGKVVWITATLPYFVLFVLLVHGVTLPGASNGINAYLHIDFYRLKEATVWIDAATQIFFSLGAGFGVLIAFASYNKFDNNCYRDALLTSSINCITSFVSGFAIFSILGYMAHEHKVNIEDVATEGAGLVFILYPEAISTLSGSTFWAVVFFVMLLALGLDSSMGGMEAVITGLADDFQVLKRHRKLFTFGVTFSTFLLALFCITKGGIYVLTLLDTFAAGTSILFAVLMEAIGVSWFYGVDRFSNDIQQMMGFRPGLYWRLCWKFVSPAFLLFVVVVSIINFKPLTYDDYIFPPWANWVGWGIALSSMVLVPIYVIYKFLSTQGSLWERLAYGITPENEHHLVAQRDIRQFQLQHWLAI
H1 receptor, sequence (P35367 whole entry): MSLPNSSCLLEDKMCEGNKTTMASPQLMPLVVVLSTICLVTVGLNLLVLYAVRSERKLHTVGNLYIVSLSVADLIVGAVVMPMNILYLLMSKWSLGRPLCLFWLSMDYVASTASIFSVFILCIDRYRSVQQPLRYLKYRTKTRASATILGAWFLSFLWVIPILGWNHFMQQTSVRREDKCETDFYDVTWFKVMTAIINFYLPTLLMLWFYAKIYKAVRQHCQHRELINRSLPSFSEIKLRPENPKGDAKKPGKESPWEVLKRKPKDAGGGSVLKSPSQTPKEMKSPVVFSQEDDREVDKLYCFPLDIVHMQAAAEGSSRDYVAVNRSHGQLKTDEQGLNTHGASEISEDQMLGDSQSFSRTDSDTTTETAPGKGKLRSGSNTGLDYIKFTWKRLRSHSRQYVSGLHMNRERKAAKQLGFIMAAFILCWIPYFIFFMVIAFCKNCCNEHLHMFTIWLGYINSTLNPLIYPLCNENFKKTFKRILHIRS

One may read the IC50 as the point on the concentration scale where inhibition reaches its midpoint. Take `CN1CCN(C2=Nc3ccccc3Sc3ccc(Cl)cc32)CC1` [2-Chloro-11-(4-methyl-piperazin-1-yl)-dibenzo[b,f][1,4]thiazepine]: the half-inhibitory concentration (IC50) at dopamine D2s receptor [1] (setting [6]) stood at 8.4 nM. The Ki on dopamine D2s receptor [2] (setting [7]) turned out to be 0.49 nM.

Regarding `Clc1ccc2c(c1)C(N1CCNCC1)=Nc1ccccc1S2` [2-Chloro-11-piperazin-1-yl-dibenzo[b,f][1,4]thiazepine], the Ki in assay [3] (setting [8]) stood at 41 nM; at H1 receptor, 3.87 nM; on dopamine D2s receptor [2] (setting [7]), 0.7 nM. Moreover, the IC50 at dopamine D2s receptor [1] (setting [6]) turned out to be 35 nM.

`CN1CCN(C2=Nc3ccccc3Sc3ccc(F)cc32)CC1` [2-Fluoro-11-(4-methyl-piperazin-1-yl)-dibenzo[b,f][1,4]thiazepine]: the Ki in assay [3] (setting [8]) came to 59 nM; on H1 receptor, 1.82 nM; at dopamine D2s receptor [2] (setting [7]), 1.1 nM. Besides, the half-maximal inhibitory concentration (IC50) on dopamine D2s receptor [1] (setting [6]) is 170 nM.

Turning to `c1ccc2c(c1)N=C(N1CCNCC1)c1ccccc1S2` [11-Piperazin-1-yl-dibenzo[b,f][1,4]thiazepine], the Ki stood at 24 nM in assay [3] (setting [8]), 3.33 nM at H1 receptor and 37 nM at dopamine D2s receptor [2] (setting [7]). For the same compound, the half-maximal inhibitory concentration (IC50) at dopamine D2s receptor [1] (setting [6]) was 800 nM.

Turning to `Fc1ccc2c(c1)C(N1CCNCC1)=Nc1ccccc1S2` [Example 1, 2-fluoro-11-(piperazin-1-yl)dibenzo[b,f][1,4]thiazepine], the “activity in D-amphetamine-induced LMA” value in assay [4] (30 mg/kg (sc)) and in assay [4] (60 mg/kg (sc)) was “showed activity” each time. In addition, the Ki in assay [3] (HEK293F cells with human NET, Cheng-Prusoff from IC50, one average result, read-out: NET inhibition Ki) was approximately 10 nM; in assay [3] (setting [8]), 9.6 nM; on dopamine D2s receptor [2] (3H-raclopride, D2s-transfected CHO cell membranes, one average result, read-out: D2 binding Ki) it was approximately 11 nM; on dopamine D2s receptor [2] (setting [7]), 11 nM. Further, the half-inhibitory concentration (IC50) is 400 nM at dopamine D2s receptor [1] (setting [6]) and approximately 404 nM at dopamine D2s receptor [1] (antagonist, dopamine-stimulated [35S]-GTPγS binding, D2s CHO membranes, one average result, read-out: GTPγS IC50). In addition, the “activity in conditioned avoidance responding” value in assay [5] (30 mg/kg (sc)) and in assay [5] (60 mg/kg (sc)) was “showed activity” in each case.
